In publication PMC11642016 (International Journal of Molecular Sciences, 2024):

Experiments:
Fadu cells = test: CellTiter-Glo luminescent cell viability assay, Fadu; details: 72 h, 72 h, first-set screening, mean ± SD, n = 2; for viability at 2.8 µM / viability at 8.3 µM / viability at 25 µM: Homo sapiens, FaDu; for viability at 2.8 µM: read-out: Cell Viability (% of Control) 2.8 µM, Fadu; for viability at 8.3 µM: read-out: Cell Viability (% of Control) 8.3 µM, Fadu; for viability at 25 µM: read-out: Cell Viability (% of Control) 25 µM, Fadu; for Cell Viability (% of Control) 2.8 µM / Cell Viability (% of Control) 8.3 µM / Cell Viability (% of Control) 25 µM: Fadu
PANC-1 cells = test: CellTiter-Glo luminescent cell viability assay, PANC-1; details: 72 h, first-set screening, mean ± SD, n = 2; for viability at 2.8 µM / viability at 8.3 µM / viability at 25 µM: Homo sapiens, PANC-1, 72 h; for viability at 2.8 µM: read-out: Cell Viability (% of Control) 2.8 µM, PANC-1; for viability at 8.3 µM: read-out: Cell Viability (% of Control) 8.3 µM, PANC-1; for viability at 25 µM: read-out: Cell Viability (% of Control) 25 µM, PANC-1; for Cell Viability (% of Control) 2.8 µM / Cell Viability (% of Control) 8.3 µM / Cell Viability (% of Control) 25 µM: PANC-1

Structure (SMILES)	viability at 2.8 µM (Fadu cells) [%]	viability at 8.3 µM (Fadu cells) [%]	viability at 25 µM (Fadu cells) [%]	viability at 2.8 µM (PANC-1 cells) [%]	viability at 8.3 µM (PANC-1 cells) [%]	viability at 25 µM (PANC-1 cells) [%]	Cell Viability (% of Control) 2.8 µM (Fadu cells)	Cell Viability (% of Control) 8.3 µM (Fadu cells)	Cell Viability (% of Control) 25 µM (Fadu cells)	Cell Viability (% of Control) 2.8 µM (PANC-1 cells)	Cell Viability (% of Control) 8.3 µM (PANC-1 cells)	Cell Viability (% of Control) 25 µM (PANC-1 cells)
NCC#Cc1ccc(CN2C(=O)C3=C(CCN(Cc4ccc(-n5cc(-c6cccc(N)c6)nn5)cc4)C3)N3CCN=C23)cc1 [1a]	106 ± 2	99 ± 2	10	100 ± 5	93 ± 7	3 ± 2	–	–	–	–	–	–
O=C1C2=C(CCN(Cc3ccc(-n4cc(-[c-]5cccc5)nn4)cc3)C2)N2CCN=C2N1Cc1ccc(C#CCO)cc1.[Fe+2].c1cc[cH-]c1 [1b]	–	–	–	–	–	–	88 ± 4 % of Control	83 ± 0 % of Control	68 ± 3 % of Control	92 ± 0 % of Control	93 ± 3 % of Control	95 ± 2 % of Control
O=C1C2=C(CCN(Cc3ccc(-n4cc(-c5ccccc5)nn4)cc3)C2)N2CCN=C2N1Cc1ccc(C#CCO)cc1 [1c]	79	71	64 ± 2	95 ± 3	87 ± 2	88 ± 6	–	–	–	–	–	–
Nc1cccc(-c2cn(-c3ccc(CN4CCC5=C(C4)C(=O)N(Cc4ccc(C#CCO)cc4)C4=NCCN45)cc3)nn2)c1 [1d]	99 ± 9	96 ± 7	84 ± 4	99 ± 3	101 ± 3	100 ± 5	–	–	–	–	–	–
C=CC(=O)Nc1cccc(-c2cn(-c3ccc(CN4CCC5=C(C4)C(=O)N(Cc4ccc(C#CCN)cc4)C4=NCCN45)cc3)nn2)c1 [1e]	96 ± 6	59 ± 4	69 ± 2	101 ± 7	91 ± 1	102	–	–	–	–	–	–
O=C1C2=C(CCN(Cc3ccc(-n4cc(-[c-]5cccc5)nn4)cc3)C2)N2CCN=C2N1Cc1cccc(C#CCO)c1.[Fe+2].c1cc[cH-]c1 [2c]	–	–	–	–	–	–	79 ± 2 % of Control	76 ± 4 % of Control	65 ± 0 % of Control	94 ± 2 % of Control	95 ± 2 % of Control	97 ± 2 % of Control
O=C1C2=C(CCN(Cc3ccc(-n4cc(-c5ccccc5)nn4)cc3)C2)N2CCN=C2N1Cc1cccc(C#CCO)c1 [2d]	99 ± 7	90 ± 10	78 ± 6	100 ± 8	87 ± 1	81	–	–	–	–	–	–
NCC#Cc1ccc(CN2C(=O)C3=C(CCN(Cc4cccc(-n5cc(-[c-]6cccc6)nn5)c4)C3)N3CCN=C23)cc1.[Fe+2].c1cc[cH-]c1 [3a]	–	–	–	–	–	–	104 ± 5 % of Control	100 ± 6 % of Control	0 ± 0 % of Control	101 ± 7 % of Control	88 ± 0 % of Control	0 ± 0 % of Control
O=C1C2=C(CCN(Cc3cccc(-n4cc(-[c-]5cccc5)nn4)c3)C2)N2CCN=C2N1Cc1ccc(C#CCO)cc1.[Fe+2].c1cc[cH-]c1 [3c]	–	–	–	–	–	–	103 ± 9 % of Control	99 ± 2 % of Control	85 ± 5 % of Control	100 ± 3 % of Control	98 ± 1 % of Control	98 ± 1 % of Control
O=C1C2=C(CCN(Cc3cccc(-n4cc(-c5ccccc5)nn4)c3)C2)N2CCN=C2N1Cc1ccc(C#CCO)cc1 [3d]	87 ± 1	29 ± 2	23 ± 3	85 ± 1	55 ± 6	46 ± 7	–	–	–	–	–	–
